Measured values taken from patent US20230399661A1, “SHUTTLE AGENT PEPTIDES OF MINIMAL LENGTH AND VARIANTS THEREOF ADAPTED FOR TRANSDUCTION OF CAS9-RNP AND OTHER NUCLEOPROTEIN CARGOS” (priority 2020, published 2023).

System: HeLa cells
Experiment: Large-scale screening for propidium iodide (PI) transduction activity, flow cytometry
Assay type: cell-based, Human
Settings: data not shown
Method: HeLa cells were plated (20 000 cells/well) in a 96 well-plate the day prior to the experiment in DMEM containing 10% FBS. Each delivery mix comprising a synthetic peptide shuttle agent (10-30 μM) and the propidium iodide (PI) (10 μg/mL) were prepared and completed to 50 μL with PBS. Cells were washed once with PBS and the shuttle/PI mix was added to the cells and incubated for one minute. Then 100 μL DMEM containing 10% FBS was added to the mix. Cells were then immediately washed once with PBS and incubated in DMEM containing 10% FBS for two hours. Cells were then analyzed by flow cytometry. […]
Due to the large number of peptides screened, negative controls were performed in parallel for each experimental batch and included a “no treatment” (NT) control in which the cells were not exposed to shuttle peptide or cargo, as well as a “cargo alone” control in which cells were exposed to the cargo in the absence of shuttle agent. […] Mean PI or GFP-NLS delivery score was calculated by multiplying the mean fluorescence intensity (of at least duplicate samples) measured for the viable PI+ or GFP+ cells by the mean percentage of viable PI+ or GFP+ cells, divided by 100,000 for GFP delivery or by 10,000 for PI delivery. […]

With “FSD174 Scramble: negative control peptide known to have low or no GFP transduction activity (LGRSGRIKIGGWSALASRARQARGLKIWTQGRL; FSD174 Scramble)” the “PI transduction efficiency relative to cargo alone negative control” value was “lower transduction efficiencies for PI”.
